Laboratory results reported in US20250236597A1, “DEUTERATED BENZODIAZEPINE ANALOGS AND METHODS OF USE IN TREATING CANCER” (University of Cincinnati, priority 2022, published 2025).

Columns and labels:
Type in all cases: cell-based
[1] = system: tumors; test: Activity summary of exemplary deuterated compounds (Table 1); details: Table 1 summary, result in words
[2] = system: human patient-derived cancer cell lines; test: Cytotoxicity against the tested cancer cell lines (overall statement); details: A375, LN18 and H1792 cells, result in words
Experimental: (§1) Cytotoxicity of DiD3, DiD5, QHD3, QHD5, KRMD3, and KRMD5 was assessed in A375 human melanoma cells, LN18 human glioma cells, and H1792 human NSCLC cells.
(§2) Each compound powder was weighed and dissolved in DMSO to a concentration of 40 mM. Dissolved compounds were stored at 4° C. Drug dilutions were prepared in phenol free medium as follows:
(§3) Cell culture process: Optimum cell number for each cell line was determined and the cell number giving about 1.0 OD value after one hour of incubation with the CellTiter 96® AQueous One Solution Cell Proliferation Assay reagent (Promega) was selected for cell proliferation experiments. On Day 1, cells were trypsinized, counted, and diluted to: A375 human melanoma cells: 30000 cells/mL (3000 cells/100 μL or 3000 cells/well); LN18 human glioma cells: 50000 cells/mL (5000 cells/100 μL or 5000 cells/well); and H1792 human NSCLC cells: 12000 cells/mL (1200 cells/100 μL or 1200 cells/well).
100 μL of cell suspension was added to 96 well plates. Rows B to G and columns 2 to 11 were seeded with cells. […]
Data analysis: the average OD from the five wells containing medium and no cells (A2 to A6) was calculated and the value subtracted from each individual OD reading. The OD readings for each drug dilution was normalized to DMSO control, set as 100% cell viability/proliferation. […]

[3] = system: A375 human melanoma cells; test: Cytotoxicity assay (CellTiter 96 AQueous One), A375 cells; details: A-375, 72 h, read-out: Cytotoxicity of deuterated compounds (IC50, μM)
Experimental: as §1, §2, §3
(§4) 100 μL of cell suspension was added to 96 well plates. Rows B to G and columns 2 to 11 were seeded with cells. Outer wells around the plate were filled with 100 μL phosphate buffered saline (PBS), except wells A2 to A6, which were filled with medium without cells. Cells were then incubated 24 hours and allowed to attach.
(§5) On Day 2: drug and controls were added to the plated cells as follows: background control: medium in wells A2 to A6 was aspirated and replaced with 100 μL fresh medium; control and test dilutions: medium was carefully aspirated and 100 μL of DMSO control or diluted drug was added to 5 consecutive wells in the same row. After drug addition, plates were returned to the incubator for 48 to 72 hours.
(§6) On Day 5 or 6:20 μL of CellTiter 96® AQueous One Solution Cell Proliferation Assay reagent (Promega) was added to each control or test well, incubated 1 to 2 hours, and then OD was acquired at 490 nm.
(§7) Data analysis: the average OD from the five wells containing medium and no cells (A2 to A6) was calculated and the value subtracted from each individual OD reading. The OD readings for each drug dilution was normalized to DMSO control, set as 100% cell viability/proliferation. Log drug concentration versus percentage viability was then plotted using GraphPad Prism.

[4] = system: H1792 human NSCLC cells; test: Cytotoxicity assay (CellTiter 96 AQueous One), H1792 cells; details: NCI-H1792, 72 h, read-out: Cytotoxicity of deuterated compounds (IC50, μM)
Experimental: as §1, §2, §3, §4, §5, §6, §7

[5] = system: LN18 human glioma cells; test: Cytotoxicity assay (CellTiter 96 AQueous One), LN18 cells; details: LN-18, 72 h, read-out: Cytotoxicity of deuterated compounds (IC50, μM)
Experimental: as §1, §2, §3, §4, §5, §6, §7

SMILES | Activity [1] | Cytotoxicity against the tested human patient-derived cancer cell lines [2] | IC50 [3] | IC50 [4] | IC50 [5]
[2H]C([2H])([2H])N1C(=O)CN=C(c2ccccc2)c2cc(Cl)ccc21 [DiD3] | Inactive | non-cytotoxic |  |  | 
[2H]C1([2H])N=C(c2ccccc2)c2cc(Cl)ccc2N(C([2H])([2H])[2H])C1=O [DiD5] | Inactive | non-cytotoxic |  |  | 
[2H]C([2H])([2H])N1C(=O)CN=C(c2ccccc2F)c2cc(C#C)ccc21 [KRMD3] | Active against tumors |  | 0.35 µM | 2.13 µM | 2.43 µM
[2H]C1([2H])N=C(c2ccccc2F)c2cc(C#C)ccc2N(C([2H])([2H])[2H])C1=O [KRMD5] | Active against tumors |  | 0.63 µM | 2.52 µM | 2.67 µM
[2H]C([2H])([2H])N1C(=O)CN=C(c2ccccc2)c2cc(C#C)ccc21 [QHD3] | Active against tumors |  | 0.31 µM | 1.75 µM | 1.81 µM
[2H]C1([2H])N=C(c2ccccc2)c2cc(C#C)ccc2N(C([2H])([2H])[2H])C1=O [QHD5] | Active against tumors |  | 0.46 µM | 1.98 µM | 2.51 µM
